{
  "source": "PubChem BioAssay AID1845209",
  "about": "(Molecular Pharmacology Branch, DTP, NCI, 2023)",
  "tested_on": "NCI-H211 tumor spheroids, viability percent test/control",
  "assay": "Anticancer human tumor NCI-H211 cell line growth inhibition;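 further: spheroids exposed to agents for seven days before readout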",
  "conditions": "spheroids with HUVEC and MSC; for IC50: curve of first compound; for viability, T/C: stronger effect = lower value",
  "in_short": "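Single agents and combinations were tested on spheroids built from tumor cells plus HUVEC and hMSC, at half-log dilutions starting at or near clinical Cmax, else 10 microM; final DMSO 0.25% (v/v).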",
  "data": [
    {"compound": "CC1COCCN1c1cc(-c2ccnn2C)c2ccnc(-c3ccn[nH]3)c2n1", "note": "(stereo not given) + Cn1nnc2c(C(N)=O)ncn2c1=O", "values": [
      {"measurement": "IC50", "setting": "second compound 1 µM", "result": "< 31.6", "unit": "nM"},
      {"measurement": "IC50", "setting": "second compound 3.16 µM", "result": "< 31.6", "unit": "nM"},
      {"measurement": "IC50", "setting": "second compound 10 µM", "result": "< 31.6", "unit": "nM"},
      {"measurement": "IC50", "setting": "second compound 31.6 µM", "result": "< 31.6", "unit": "nM"},
      {"measurement": "IC50", "setting": "second compound 100 µM", "result": "< 31.6", "unit": "nM"},
      {"measurement": "viability, T/C", "setting": "second compound 1 µM, first compound 0.0316 µM", "result": 11.4, "unit": "%"},
      {"measurement": "viability, T/C", "setting": "second compound 1 µM, first compound 0.1 µM", "result": 1.45, "unit": "%"},
      {"measurement": "viability, T/C", "setting": "second compound 1 µM, first compound 0.316 µM", "result": 0.83, "unit": "%"},
      {"measurement": "viability, T/C", "setting": "second compound 1 µM, first compound 1 µM", "result": 0.74, "unit": "%"},
      {"measurement": "viability, T/C", "setting": "second compound 1 µM, first compound 3.16 µM", "result": 0.72, "unit": "%"},
      {"measurement": "viability, T/C", "setting": "second compound 1 µM, first compound 10 µM", "result": 1.43, "unit": "%"},
      {"measurement": "viability, T/C", "setting": "second compound 3.16 µM, first compound 0.0316 µM", "result": 9.67, "unit": "%"},
      {"measurement": "viability, T/C", "setting": "second compound 3.16 µM, first compound 0.1 µM", "result": 1.34, "unit": "%"},
      {"measurement": "viability, T/C", "setting": "second compound 3.16 µM, first compound 0.316 µM", "result": 0.86, "unit": "%"},
      {"measurement": "viability, T/C", "setting": "second compound 3.16 µM, first compound 1 µM", "result": 0.68, "unit": "%"},
      {"measurement": "viability, T/C", "setting": "second compound 3.16 µM, first compound 3.16 µM", "result": 0.72, "unit": "%"},
      {"measurement": "viability, T/C", "setting": "second compound 3.16 µM, first compound 10 µM", "result": 1.44, "unit": "%"},
      {"measurement": "viability, T/C", "setting": "second compound 10 µM, first compound 0.0316 µM", "result": 6.59, "unit": "%"},
      {"measurement": "viability, T/C", "setting": "second compound 10 µM, first compound 0.1 µM", "result": 0.88, "unit": "%"},
      {"measurement": "viability, T/C", "setting": "second compound 10 µM, first compound 0.316 µM", "result": 0.79, "unit": "%"},
      {"measurement": "viability, T/C", "setting": "second compound 10 µM, first compound 1 µM", "result": 0.62, "unit": "%"},
      {"measurement": "viability, T/C", "setting": "second compound 10 µM, first compound 3.16 µM", "result": 0.67, "unit": "%"},
      {"measurement": "viability, T/C", "setting": "second compound 10 µM, first compound 10 µM", "result": 1.16, "unit": "%"},
      {"measurement": "viability, T/C", "setting": "second compound 31.6 µM, first compound 0.0316 µM", "result": 1.39, "unit": "%"},
      {"measurement": "viability, T/C", "setting": "second compound 31.6 µM, first compound 0.1 µM", "result": 1.09, "unit": "%"},
      {"measurement": "viability, T/C", "setting": "second compound 31.6 µM, first compound 0.316 µM", "result": 0.74, "unit": "%"},
      {"measurement": "viability, T/C", "setting": "second compound 31.6 µM, first compound 1 µM", "result": 0.59, "unit": "%"},
      {"measurement": "viability, T/C", "setting": "second compound 31.6 µM, first compound 3.16 µM", "result": 0.66, "unit": "%"},
      {"measurement": "viability, T/C", "setting": "second compound 31.6 µM, first compound 10 µM", "result": 1.11, "unit": "%"},
      {"measurement": "viability, T/C", "setting": "second compound 100 µM, first compound 0.0316 µM", "result": 1.19, "unit": "%"},
      {"measurement": "viability, T/C", "setting": "second compound 100 µM, first compound 0.1 µM", "result": 1.1, "unit": "%"},
      {"measurement": "viability, T/C", "setting": "second compound 100 µM, first compound 0.316 µM", "result": 0.95, "unit": "%"},
      {"measurement": "viability, T/C", "setting": "second compound 100 µM, first compound 1 µM", "result": 0.67, "unit": "%"},
      {"measurement": "viability, T/C", "setting": "second compound 100 µM, first compound 3.16 µM", "result": 0.65, "unit": "%"},
      {"measurement": "viability, T/C", "setting": "second compound 100 µM, first compound 10 µM", "result": 1.12, "unit": "%"}
    ]},
    {"compound": "CC(C)n1c(=O)n(C)c2cnc3cc(F)c(-c4ccc(OCCCN5CCCCC5)nc4)cc3c21", "note": "+ CC[C@@]1(O)C(=O)OCc2c1cc1n(c2=O)Cc2cc3c(CN(C)C)c(O)ccc3nc2-1", "values": [
      {"measurement": "IC50", "setting": "second compound 0.003 µM", "result": "< 31.6", "unit": "nM"},
      {"measurement": "IC50", "setting": "second compound 0.00949 µM", "result": "< 31.6", "unit": "nM"},
      {"measurement": "IC50", "setting": "second compound 0.03 µM", "result": "< 31.6", "unit": "nM"},
      {"measurement": "IC50", "setting": "second compound 0.0949 µM", "result": "< 31.6", "unit": "nM"},
      {"measurement": "IC50", "setting": "second compound 0.3 µM", "result": "< 31.6", "unit": "nM"},
      {"measurement": "viability, T/C", "setting": "second compound 0.003 µM, first compound 0.0316 µM", "result": 19.9, "unit": "%"},
      {"measurement": "viability, T/C", "setting": "second compound 0.003 µM, first compound 0.1 µM", "result": 22, "unit": "%"},
      {"measurement": "viability, T/C", "setting": "second compound 0.003 µM, first compound 0.316 µM", "result": 20, "unit": "%"},
      {"measurement": "viability, T/C", "setting": "second compound 0.003 µM, first compound 1 µM", "result": 18.8, "unit": "%"},
      {"measurement": "viability, T/C", "setting": "second compound 0.003 µM, first compound 3.16 µM", "result": 10.9, "unit": "%"},
      {"measurement": "viability, T/C", "setting": "second compound 0.003 µM, first compound 10 µM", "result": 2.91, "unit": "%"},
      {"measurement": "viability, T/C", "setting": "second compound 0.00949 µM, first compound 0.0316 µM", "result": 0.98, "unit": "%"},
      {"measurement": "viability, T/C", "setting": "second compound 0.00949 µM, first compound 0.1 µM", "result": 0.97, "unit": "%"},
      {"measurement": "viability, T/C", "setting": "second compound 0.00949 µM, first compound 0.316 µM", "result": 1.23, "unit": "%"},
      {"measurement": "viability, T/C", "setting": "second compound 0.00949 µM, first compound 1 µM", "result": 1.31, "unit": "%"},
      {"measurement": "viability, T/C", "setting": "second compound 0.00949 µM, first compound 3.16 µM", "result": 1.09, "unit": "%"},
      {"measurement": "viability, T/C", "setting": "second compound 0.00949 µM, first compound 10 µM", "result": 0.52, "unit": "%"},
      {"measurement": "viability, T/C", "setting": "second compound 0.03 µM, first compound 0.0316 µM", "result": 1.27, "unit": "%"},
      {"measurement": "viability, T/C", "setting": "second compound 0.03 µM, first compound 0.1 µM", "result": 0.81, "unit": "%"},
      {"measurement": "viability, T/C", "setting": "second compound 0.03 µM, first compound 0.316 µM", "result": 0.82, "unit": "%"},
      {"measurement": "viability, T/C", "setting": "second compound 0.03 µM, first compound 1 µM", "result": 0.85, "unit": "%"},
      {"measurement": "viability, T/C", "setting": "second compound 0.03 µM, first compound 3.16 µM", "result": 0.81, "unit": "%"},
      {"measurement": "viability, T/C", "setting": "second compound 0.03 µM, first compound 10 µM", "result": 0.5, "unit": "%"},
      {"measurement": "viability, T/C", "setting": "second compound 0.0949 µM, first compound 0.0316 µM", "result": 0.98, "unit": "%"},
      {"measurement": "viability, T/C", "setting": "second compound 0.0949 µM, first compound 0.1 µM", "result": 1.01, "unit": "%"},
      {"measurement": "viability, T/C", "setting": "second compound 0.0949 µM, first compound 0.316 µM", "result": 0.97, "unit": "%"},
      {"measurement": "viability, T/C", "setting": "second compound 0.0949 µM, first compound 1 µM", "result": 0.94, "unit": "%"},
      {"measurement": "viability, T/C", "setting": "second compound 0.0949 µM, first compound 3.16 µM", "result": 1, "unit": "%"},
      {"measurement": "viability, T/C", "setting": "second compound 0.0949 µM, first compound 10 µM", "result": 0.57, "unit": "%"},
      {"measurement": "viability, T/C", "setting": "second compound 0.3 µM, first compound 0.0316 µM", "result": 1.06, "unit": "%"},
      {"measurement": "viability, T/C", "setting": "second compound 0.3 µM, first compound 0.1 µM", "result": 0.95, "unit": "%"},
      {"measurement": "viability, T/C", "setting": "second compound 0.3 µM, first compound 0.316 µM", "result": 0.85, "unit": "%"},
      {"measurement": "viability, T/C", "setting": "second compound 0.3 µM, first compound 1 µM", "result": 1.2, "unit": "%"},
      {"measurement": "viability, T/C", "setting": "second compound 0.3 µM, first compound 3.16 µM", "result": 1.02, "unit": "%"},
      {"measurement": "viability, T/C", "setting": "second compound 0.3 µM, first compound 10 µM", "result": 0.73, "unit": "%"}
    ]}
  ]
}
